Data from patent US12071437B1, “Pyrazolo[1,5-a]pyrido[4,3-e]pyrimidine-2-carboxylic acids as CK2 inhibitors” (KING FAISAL UNIVERSITY, priority 2024, dated 2024).

What was measured:
[1] = system: A375 (melanoma) cancer cells; assay: In vitro cytotoxic activity MTT assay, A375; type: cell-based; details: Homo sapiens, A-375, 96 hours exposure, 50% inhibition of cell proliferation, read-out: Cytotoxicity activity IC50, A375 (melanoma)
Experimental: (§1) Compounds 1-16 were screened for their in vitro cytotoxic activity utilizing a 3-(4,5-dimethyl-thiazol-2-yl)-2,5-diphenyltetrazolium bromide (MTT) assay against selected cancer human cell lines consisting of PC3 (prostate), HCT116 (colon), A375 (melanoma), H1299 (lung), MIAPaCa-2 (pancreas), HL60 (leukemia), MCF7 (breast), MDA-MB-231 (breast) (T. Mosmann, J. Immunol. Meth., 1983, 65, 55-63). The cells were cultured at 37° C. in RMPI1640 medium supplemented with 10% fetal bovine serum, 50 IU/mL penicillin, and 50 μg/mL streptomycin in a 5% CO2 incubator. All cells were sub-cultured 3 times/week by trypsinisation. Viable cells were seeded and allowed to adhere for 12 hours before a test drug was added in 96-well plates at an initial density of 1.0×10^5 cells/mL. Tumor cell lines were separately exposed to various concentrations of the tested compounds followed by incubation at a temperature of 37° C. during 96 hours inside a medium of fresh RMPI1640. Cells were subsequently incubated at 37° ° C. using MTT at 0.5 mg/mL during 4 hours. After removal of supernatant, formazan crystals were dissolved in isopropanol and the optical density was measured at 570 nm. CX-4945 was used as a positive control.

[2] = biological target: T1, recombinant human CK2 (RRββ-holoenzyme) (Homo sapiens, UniProt P68400); assay: CK2 Kinase Assay (33P-ATP, substrate peptide RRRDDDSDDD); type: biochemical; details: final ATP 15 μM, 10 min at 30° C., read-out: protein kinase CK2 inhibition IC50
T1 construct: purchased Millipore
Experimental: CK2 Kinase Assay was conducted using the protocol as described in Pierre F. et al; J. Med. Chem. 2011, 54, 635-654. The tested compounds in aqueous solution were added at a volume of 10 μL to a reaction mixture comprising 10 μL of assay dilution buffer (ADB; 20 mM MOPS, pH 7.2, 25 mM β-glycerol phosphate, 5 mM EGTA, 1 mM sodium orthovanadate, and 1 mM dithiothreitol), 10 μL of substrate peptide (RRRDDDSDDD, dissolved in ADB at a concentration of 1 mM), 10 μL of recombinant human CK2 (RRββ-holoenzyme, 25 ng dissolved in ADB; Millipore). Reactions were initiated by the addition of 10 μL of ATP solution (90% 75 mMMgCl2, 75 μM ATP (final ATP concentration: 15 μM) dissolved in ADB; 10% [γ-33P] ATP (stock 1 mCi/100 μL; 3000 Ci/mmol (Perkin-Elmer) and maintained for 10 min at 30° C. The reactions were quenched with 100 μL of 0.75% phosphoric acid and then transferred to and filtered through a phosphor cellulose filter plate (Millipore). After washing each well five times with 0.75% phosphoric acid, the plate was dried under vacuum for 5 min and, following the addition of 15 μL of scintillation fluid to each well, the residual radioactivity was measured using a Wallac […]. The IC50 values were derived from eight concentrations of test inhibitors.

[3] = system: MIAPaCa-2 (pancreas) cancer cells; assay: In vitro cytotoxic activity MTT assay, MIAPaCa-2; type: cell-based; details: Homo sapiens, MIA PaCa-2; MIAPaCa-2 cells, 96 hours exposure, 50% inhibition of cell proliferation; read-out: Cytotoxicity activity IC50, MIAPaCa-2 (pancreas)
Experimental: as §1

[4] = system: HL60 (leukemia) cancer cells; assay: In vitro cytotoxic activity MTT assay, HL60; type: cell-based; details: Homo sapiens, HL-60, 96 hours exposure, 50% inhibition of cell proliferation, read-out: Cytotoxicity activity IC50, HL60 (leukemia)
Experimental: as §1

[5] = system: MDA-MB-231 (breast) cancer cells; assay: In vitro cytotoxic activity MTT assay, MDA-MB-231; type: cell-based; details: Homo sapiens; MDA-MB-231 cells, 96 hours exposure, 50% inhibition of cell proliferation; read-out: Cytotoxicity activity IC50, MDA-MB-231 (breast)
Experimental: as §1

[6] = system: H1299 (lung) cancer cells; assay: In vitro cytotoxic activity MTT assay, H1299; type: cell-based; details: Homo sapiens, NCI-H1299, 96 hours exposure, 50% inhibition of cell proliferation, read-out: Cytotoxicity activity IC50, H1299 (lung)
Experimental: as §1

[7] = system: MCF7 (breast) cancer cells; assay: In vitro cytotoxic activity MTT assay, MCF7; type: cell-based; details: Homo sapiens, 96 hours exposure, 50% inhibition of cell proliferation, read-out: Cytotoxicity activity IC50, MCF7 (breast)
Experimental: as §1

[8] = system: HCT116 (colon) cancer cells; assay: In vitro cytotoxic activity MTT assay, HCT116; type: cell-based; details: Homo sapiens, HCT-116, 96 hours exposure, 50% inhibition of cell proliferation, read-out: Cytotoxicity activity IC50, HCT116 (colon)
Experimental: as §1

[9] = system: PC3 (prostate) cancer cells; assay: In vitro cytotoxic activity MTT assay, PC3; type: cell-based; details: Homo sapiens, PC-3, 96 hours exposure, 50% inhibition of cell proliferation, read-out: Cytotoxicity activity IC50, PC3 (prostate)
Experimental: as §1

T1 sequence (P68400 whole entry): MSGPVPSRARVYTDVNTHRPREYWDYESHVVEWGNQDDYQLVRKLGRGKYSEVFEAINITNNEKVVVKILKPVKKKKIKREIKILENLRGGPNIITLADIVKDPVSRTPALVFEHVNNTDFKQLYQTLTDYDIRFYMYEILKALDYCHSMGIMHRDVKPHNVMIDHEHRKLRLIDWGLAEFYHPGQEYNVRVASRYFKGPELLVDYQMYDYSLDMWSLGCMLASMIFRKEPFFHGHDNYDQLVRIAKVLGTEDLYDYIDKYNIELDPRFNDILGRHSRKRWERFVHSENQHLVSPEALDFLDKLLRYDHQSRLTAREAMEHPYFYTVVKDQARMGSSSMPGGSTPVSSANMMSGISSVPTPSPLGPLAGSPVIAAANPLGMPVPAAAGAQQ
T1 sequence (P67870 whole entry partner): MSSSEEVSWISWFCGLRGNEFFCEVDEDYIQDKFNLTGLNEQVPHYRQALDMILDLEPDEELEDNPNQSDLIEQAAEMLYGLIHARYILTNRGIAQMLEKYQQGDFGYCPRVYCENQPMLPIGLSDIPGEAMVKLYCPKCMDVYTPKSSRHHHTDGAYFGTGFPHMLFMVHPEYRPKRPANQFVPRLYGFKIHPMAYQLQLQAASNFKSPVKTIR

Q: Which results are given for O=C(O)c1cc2nc(Nc3cccc(Cl)c3)c3ccncc3n2n1 [Compound 1, 5-((3-Chlorophenyl)Amino)Pyrazolo[1,5-a]Pyrido[4,3-e]Pyrimidine-2-Carboxylic Acid]?
A: IC50 [1]: 4.5 µM; IC50 [2]: 0.072 µM; IC50 [3]: 1.3 µM; IC50 [4]: 3.2 µM; IC50 [5]: 4.8 µM; IC50 [6]: 1.9 µM; IC50 [7]: 5.4 µM; IC50 [8]: 1.6 µM; IC50 [9]: 1.7 µM
